These results are taken from ChEMBL document CHEMBL2311417, “Synthesis and biological evaluation of N-aryl-7-methoxybenzo[b]furo[3,2-d]pyrimidin-4-amines and their N-arylbenzo[b]thieno[3,2-d]pyrimidin-4-amine analogues as dual inhibitors of CLK1 and DYRK1A kinases” (Eur J Med Chem, 2013).

Experiment [1] deals with Glycogen synthase kinase-3 (Sus scrofa, UniProt B2LUN4+I6LNT8). Briefly: Inhibition of porcine brain GSK3alpha/beta using GS-1 as substrate.
For experiment [2], the target named is Dual specificity protein kinase CLK1 (Homo sapiens, UniProt P49759).
Experiment [3] addresses Cyclin-dependent kinase 5/CDK5 activator 1 (Homo sapiens, UniProt Q00535). Put plainly: Inhibition of human recombinant CDK5/p25 after 30 mins by scintillation counting. The format is protein-complex assay.
Experiment [4] has as its target Dual specificity tyrosine-phosphorylation-regulated kinase 1A (Rattus norvegicus, UniProt Q63470). Put plainly: Inhibition of rat recombinant DYRK1A-GST expressed in Escherichia coli using KKISGRLSPIMTEQ as substrate.
A short description of experiment [5]: Inhibition of porcine brain CK1delta/epsilon using RRKHAAIGpSAYSITA as substrate. The arrangement: species or system Sus scrofa.

A value given as a limit tells only on which side of the number the result lay.

Dual specificity protein kinase CLK1, sequence (P49759 whole entry): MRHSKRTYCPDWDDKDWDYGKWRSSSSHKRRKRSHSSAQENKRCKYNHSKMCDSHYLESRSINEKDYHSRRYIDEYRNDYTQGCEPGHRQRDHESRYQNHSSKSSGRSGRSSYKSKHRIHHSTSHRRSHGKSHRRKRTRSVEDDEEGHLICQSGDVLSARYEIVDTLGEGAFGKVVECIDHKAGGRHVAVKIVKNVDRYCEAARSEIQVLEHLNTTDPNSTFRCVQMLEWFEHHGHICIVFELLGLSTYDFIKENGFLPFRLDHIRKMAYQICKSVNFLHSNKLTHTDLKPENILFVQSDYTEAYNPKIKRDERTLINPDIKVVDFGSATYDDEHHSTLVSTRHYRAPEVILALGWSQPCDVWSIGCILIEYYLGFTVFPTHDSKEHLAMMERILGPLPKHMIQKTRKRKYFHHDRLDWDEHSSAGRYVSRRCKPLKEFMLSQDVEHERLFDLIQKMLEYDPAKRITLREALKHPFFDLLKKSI
Cyclin-dependent kinase 5/CDK5 activator 1, sequence (Q00535 whole entry): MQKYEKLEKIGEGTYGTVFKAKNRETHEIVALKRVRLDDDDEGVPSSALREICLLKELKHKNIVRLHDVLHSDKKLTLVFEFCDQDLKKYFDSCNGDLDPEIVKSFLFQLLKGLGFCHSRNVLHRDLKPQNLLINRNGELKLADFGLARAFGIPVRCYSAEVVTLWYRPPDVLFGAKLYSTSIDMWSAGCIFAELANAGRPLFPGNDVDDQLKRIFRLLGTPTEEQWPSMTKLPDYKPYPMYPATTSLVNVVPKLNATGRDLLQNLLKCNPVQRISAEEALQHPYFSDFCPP
Cyclin-dependent kinase 5/CDK5 activator 1, sequence (Q15078 whole entry, further chain): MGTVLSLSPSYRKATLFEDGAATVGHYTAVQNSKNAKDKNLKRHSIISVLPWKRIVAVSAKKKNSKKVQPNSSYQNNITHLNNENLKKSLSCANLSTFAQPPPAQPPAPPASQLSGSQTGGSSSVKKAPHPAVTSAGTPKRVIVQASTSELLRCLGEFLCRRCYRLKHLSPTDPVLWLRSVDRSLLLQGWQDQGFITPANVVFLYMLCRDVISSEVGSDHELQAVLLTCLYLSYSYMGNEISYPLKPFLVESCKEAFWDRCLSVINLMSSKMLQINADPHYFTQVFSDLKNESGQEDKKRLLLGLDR

On to `COc1ccc2c(c1)oc1c(Nc3ccc4c(c3)OCO4)ncnc12`, for which the half-inhibitory concentration (IC50) in experiment [1] is greater than 10 µM; in experiment [2], 2 µM; in experiment [3], greater than 10 µM; in experiment [4], 2.8 µM; in experiment [5] it was greater than 10 µM.
On to `COc1ccc2c(c1)oc1c(Nc3ccc4c(c3)OCCO4)ncnc12`, for which the IC50 in experiment [1], in experiment [2], in experiment [3], in experiment [4] and in experiment [5] was greater than 10 µM each time.
For `COc1ccc2c(c1)oc1c(Nc3ccc(F)cc3)ncnc12`, the IC50 in experiment [1], in experiment [2], in experiment [3], in experiment [4] and in experiment [5] was greater than 10 µM in each case.
As for `COc1ccc2c(c1)oc1c(Nc3ccc(Br)cc3)ncnc12`, the IC50 in experiment [1], in experiment [2], in experiment [3], in experiment [4] and in experiment [5] was greater than 10 µM in each case.
Consider `COc1ccc2c(c1)oc1c(Nc3ccc(Cl)cc3)ncnc12`, for which the IC50 in experiment [1], in experiment [2], in experiment [3], in experiment [4] and in experiment [5] was greater than 10 µM each time.
On to `COc1ccc2c(c1)oc1c(Nc3cccc(Cl)c3)ncnc12`, for which the IC50 in experiment [1], in experiment [2], in experiment [3], in experiment [4] and in experiment [5] was greater than 10 µM each time.
As for `COc1ccc2c(c1)oc1c(Nc3ccccc3Cl)ncnc12`, the IC50 is greater than 10 µM in experiment [1]; 4.2 µM in experiment [2]; greater than 10 µM in experiment [3]; 3.2 µM in experiment [4]; greater than 10 µM in experiment [5].
`COc1ccc2c(c1)oc1c(Nc3ccc(Cl)c(Cl)c3)ncnc12`: the IC50 in experiment [1], in experiment [2], in experiment [3], in experiment [4] and in experiment [5] was greater than 10 µM in each case.
With `COc1ccc2c(c1)oc1c(N)ncnc12`, the half-maximal inhibitory concentration (IC50) in experiment [1] is greater than 10 µM; in experiment [2] it was 0.41 µM; in experiment [3], greater than 10 µM; in experiment [4] it was 1.1 µM; in experiment [5] it was 1.9 µM.
Turning to `COc1ccc2c(c1)oc1c(Nc3ccccc3)ncnc12`, the IC50 in experiment [1], in experiment [2], in experiment [3], in experiment [4] and in experiment [5] was greater than 10 µM each time.
Turning to `COc1ccc2c(c1)oc1c(Nc3cccc(C)c3)ncnc12`, the IC50 in experiment [1], in experiment [2], in experiment [3], in experiment [4] and in experiment [5] was greater than 10 µM each time.
For `COc1ccc(Nc2ncnc3c2oc2cc(OC)ccc23)cc1`, the IC50 was greater than 10 µM in experiment [1]; 1.5 µM in experiment [2]; greater than 10 µM in experiment [3]; 0.88 µM in experiment [4]; greater than 10 µM in experiment [5].
Regarding `COc1ccc2c(c1)oc1c(Nc3ccc(OC)c(OC)c3)ncnc12`, the IC50 in experiment [1], in experiment [2], in experiment [3], in experiment [4] and in experiment [5] was greater than 10 µM each time.
Consider `COc1ccc2c(c1)oc1c(Nc3cc(OC)c(OC)c(OC)c3)ncnc12`, for which the IC50 in experiment [1], in experiment [2], in experiment [3], in experiment [4] and in experiment [5] was greater than 10 µM throughout.
